US12268677B2, “4-aminopyridine (4-AP) and bone morphogenetic protein 2 (BMP-2)” (The Penn State Research Foundation, priority 2022, dated 2025)

Columns and labels:
BMP-2 protein in hBMSCs = assay: BMP-2 protein level in hBMSCs by western blot; assay type: cell-based, human; settings: 1000 μM 4-AP
Procedure: FIGS. 2A-2B. Western blot analysis of BMP-2 protein. Incubation of hBMSCs in Dulbecco's modified Eagle's medium supplemented with 10% FBS and penicillin/streptomycin (100 U/mL penicillin and […] streptomycin) in the presence of 1000 μM 4-AP increased BMP-2 protein at day 3, 7, and 14. The blots were stripped and reprobed with anti-GAPDH antibody. FIG. 2A: Representative image of a western blot of BMP-2 at day 3, 7, and 14. FIG. 2B: Densitometric analysis was carried out and the BMP-2 was normalized with GAPDH to calculate fold change. Data are presented as mean±SEM (n=3). Values are significant at *p<0.05, Abbreviations used; 4—AP-4-aminopyridine, BMP-2—bone morphogenetic protein-2, GAPDH-glyceraldehyde-3-phosphate dehydrogenase. Protein level by western blot: Total protein was extracted from hBMSCs with RIPA lysis buffer at the end of 3, 7, and 14 days of 4-AP treatment. The protein concentrations of cell lysates were determined using Pierce BCA Protein Assay kit (Thermo Fischer Scientific). Total cell lysates containing equal amounts of protein were denatured with SDS reducing buffer. The denatured proteins were separated on 10% polyacrylamide gel and transferred to a PVDF membrane. The blots were blocked and probed with primary and secondary antibodies, followed by visualization of bands by chemiluminescence peroxidase substrate. The BMP-2 band intensities were analyzed by ImageJ software (FIGS. 2A and 2B).

[1] = tested on: tibial fracture in C57BL/6J mice; assay: Mid-diaphysis tibial fracture healing in mice, micro-CT analysis of callus; assay type: in vivo
Description: 8 week old C57Bl/6J mice were subjected to mid-diaphysis tibial fracture, treated with 4-AP for 21 days, and harvested. FIG. 4A: Representative X-ray images at the end of 21 days of 4-AP treatment. FIG. 4B: Representative micro-CT images of tibia fracture on day 21. […] FIG. 4D: Graphical presentation of Micro CT analysis of bone mineral density (BMD), and bone volume density (BV/TV). Data are presented as mean±SEM (n=6). Values are significant at *p<0.05.
Ten-week-old male C57/BL6J mice were purchased from the Jackson laboratory (Bar Harbor, ME, USA) and were maintained in a 12-h light, 12-h dark cycle at 21.1° C. to 22.8° C. After acclimatization, all mice were randomly divided in to two groups: 1) control and 2) 4-AP.
A mid diaphysis tibial fracture was performed in ten-week-old male mice. After the mice were anesthetized with ketamine/xylazine, a 5 mm longitudinal incision will be made at the front of the proximal tibia. The mid diaphysis of the tibia will be identified, and an osteotomy will be created with a No. 11 scalpel blade preventing any comminution. A 27G hypodermic needle will be introduced into the tibial canal for intramedullary fixation. Buprenorphine was given as post-operative analgesia. X-ray images were acquired post-operatively and mice received saline or 4-AP on the same day. Control group received 100 μl of saline, and a 4-AP group received 40 μg/mouse/daily 4-AP (1.6 mg/kg) in saline intraperitoneally until day 21 post-surgery.
For micro-CT analysis, tibia of control and 4-AP mice were dissected of soft tissue and fixed in neutral buffered formalin. μCT scanning was conducted using a Scanco vivaCT 40. […] Callus area from control and 4-AP mice tibia were assessed for bone mineral density (BMD) and percent bone volume per total volume (% BV/TV).
Tibial fracture was performed in C57BL/6J mice, which were then treated with 4-AP for 21 days for the evaluation of fracture healing parameters. The bone mineral density and bone volume density were determined by micro-CT analysis at the end of 21 days 4-AP treatment.

[2] = tested on: BMP-2 gene expression in human bone marrow mesenchymal stem cells (hBMSCs); assay: BMP-2 gene expression in hBMSCs by quantitative real-time PCR; assay type: cell-based; settings: 1000 μM 4-AP
Procedure: FIG. 1. 4-AP upregulates BMP-2 expression in human bone marrow mesenchymal stem cells (hBMSCs). hBMSCs were incubated in Dulbecco's modified Eagle's medium supplemented with 10% FBS and penicillin/streptomycin (100 U/mL penicillin and […] streptomycin) in the presence of 1000 μM 4-AP induced expression of BMP-2 gene. BMP-2 gene expression was increased at day 3 and remained high at day 7 and day 14. The gene expression levels of BMP-2 were normalized with β-actin and were then used to calculate fold change in 4-AP treated compared to control. Data are presented as mean±SEM (n=3). Values are significant at *p<0.05, **p<0.01. Abbreviations used; BMP-2 —bone morphogenetic protein-2. Human bone marrow mesenchymal stem cells (hBMSC) were cultured in growth medium supplemented with 4-AP for 3, 7, and 14 days. Total RNA was isolated from the cells at the end of treatment, converted to cDNA, and the gene expression of bone morphogenetic protein-2 (BMP-2) was analyzed by quantitative real-time PCR. Gene expression by quantitative real-time PCR: Quantitative real-time PCR was carried out to determine gene expression of BMP-2 by hBMSCs incubated in Dulbecco's modified Eagle's medium with 10% fetal bovine serum (FBS) and penicillin/streptomycin (100 U/mL penicillin and […] streptomycin) at a humidified atmosphere of 5% CO2 under 37° C. Cell cultures were supplemented with 1000 μM 4-AP for 3, 7, and 14 days. Total RNA was isolated from the cells and converted to cDNA using verso cDNA synthesis kit (Thermo Fischer Scientific). The cDNA obtained was analyzed in a quantitative real-time PCR (FIG. 1).

[3] = tested on: BMP-2 gene expression in human fetal osteoblasts (hFOB); assay: BMP-2 gene expression in human fetal osteoblasts (hFOB) by quantitative real-time PCR; assay type: cell-based; settings: 1000 μM 4-AP for 3 days, normalized with β-actin
Procedure: FIG. 3. 4-AP upregulates BMP-2 gene expression in human fetal osteoblasts (hFOB). […] The gene expression levels were normalized with β-actin and was then used to calculate fold change in 4-AP treated compared to control. Data are presented as mean±SEM (n=3). Values are significant at *p<0.05. Abbreviations used; 4-AP—4-aminopyridine. Human fetal osteoblasts (hFOB) were cultured in growth medium supplemented with 4-AP for 3 days. Total RNA was isolated from the cells at the end of treatment, converted to cDNA, and the gene expression of bone morphogenetic protein-2 (BMP-2) was analyzed by quantitative real-time PCR (FIG. 3).

[4] = C57BL/6J mice, tibial fracture, 40 μg/mouse/daily 4-AP (1.6 mg/kg) intraperitoneally, 21 days, micro-CT, compared to saline treated controls

Structure (SMILES): Nc1ccncc1 [4-AP, 4-aminopyridine]
- BMP-2 protein (western blot, normalized with GAPDH) (BMP-2 protein in hBMSCs; day 3): increased
- BMP-2 protein (western blot, normalized with GAPDH) (BMP-2 protein in hBMSCs; day 7): increased
- BMP-2 protein (western blot, normalized with GAPDH) (BMP-2 protein in hBMSCs; day 14): increased
- bone mineral density within the callus area [1, 4]: higher
- bone volume density (BV/TV) within the callus area [1, 4]: higher
- bone fracture healing ([1]; C57Bl/6J mice, mid-diaphysis tibial fracture, treated with 4-AP for 21 days): enhanced
- BMP-2 gene expression (fold change vs control, normalized with β-actin) ([2]; day 3): increased
- BMP-2 gene expression (fold change vs control, normalized with β-actin) ([2]; day 7): remained high
- BMP-2 gene expression (fold change vs control, normalized with β-actin) ([2]; day 14): remained high
- expression of BMP-2 compared with the control group [3]: significantly increased
